In patent publication US20060019977A1, “Spiroheterocyclic derivative compounds and drugs comprising the compound as the active ingredient” (ONO PHARMACEUTICAL CO., LTD., priority 2002, published 2006):
Where a name gives a salt, the structure may show the parent alone.

Biological target: T1, human CCR5 (Homo sapiens, UniProt P51681)
T1 construct: expressed in transfected cells
Assay: Inhibition test on the binding of RANTES to CCR5 (RANTES-induced transient increase of Ca ion in CCR5/CHO cells)
Assay type: cell-based
Conditions: human CCR5 stably over-expressing CHO cells; 10 nM recombinant human RANTES; Ca2+ transient increase (Fura-2AM)
Procedure: Specifically, e.g., since CCR5 is a G protein-coupled seven transmembrane type receptor, an assay system in which the effect of RANTES on the transient increase of Ca ion induced via CCR5 is measured can be carried out as an assay system for screening a compound capable of inhibiting binding of RANTES to CCR5. Since both of the T cell tropic (X4) HIV and SDF-1 bind to CXCR4, similar idea can be considered.
(1) Isolation of Human CCR5 Gene
Human placental cDNA was prepared using Marathon cDNA amplification kit (Clontech). PCR primers hCCR5XbaI-F1: • 5′-[…]-3′ (SEQ ID NO:1) and hCCR5XbaI-R1: • 5′-[…]-3′ (SEQ ID NO:2) were designed based on the sequence of GenBank U54994. […]
The thus established human CCR5 stably over-expressing CHO cell (CCR5/CHO cell) was suspended in Ham's F-12 medium containing FBS (10%) and dispensed in […] portions into a 96 well plate. […] Transient increase in the intracellular Ca^2+ concentration induced by the human RANTES was measured using a Ca^2+ detector for 96 well use (Hamamatsu Photonics), and inhibition ratio (%) of the test compound was calculated by the following calculation formula. Inhibition ratio=(Ec−Ea)/Ec×100 • Ec: measured value of Ca^2+ transient increase by RANTES • Ea: measured value of Ca^2+ transient increase by RANTES when a test compound was added

T1 sequence (P51681 whole entry): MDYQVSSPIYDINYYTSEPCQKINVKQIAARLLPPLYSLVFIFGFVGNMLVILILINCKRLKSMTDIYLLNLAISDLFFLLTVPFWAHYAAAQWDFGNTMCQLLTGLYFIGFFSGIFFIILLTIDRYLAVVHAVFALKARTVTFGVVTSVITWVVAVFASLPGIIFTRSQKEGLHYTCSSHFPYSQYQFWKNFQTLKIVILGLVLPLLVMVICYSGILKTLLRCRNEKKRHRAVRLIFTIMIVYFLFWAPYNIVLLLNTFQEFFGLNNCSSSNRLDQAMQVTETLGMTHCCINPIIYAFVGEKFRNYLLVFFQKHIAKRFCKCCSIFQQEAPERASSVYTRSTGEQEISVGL

IC50 | SMILES
0.74 µM | CCCCN1C(=O)[C@@H]2CSCN2C(=O)C12CCN(Cc1ccc(Oc3ccccc3)cc1)CC2 [Example 1(1), (3R)-1-butyl-2,5-dioxo-3,4-(2-thiapropano)-9-[(4-phenoxyphenyl)methyl]-1,4,9-triazaspiro[5.5]undecane hydrochloride]
0.012 µM | CCCCN1C(=O)C2(CCCC2)NC(=O)C12CCN(Cc1ccc(Oc3ccc(C(=O)NC)cc3)cc1)CC2 [Example 5, 1-butyl-2,5-dioxo-3,3-butano-9-[4-(4methylcarbamoylphenoxy)benzyl]-1,4,9-triazaspiro[5.5]undecane hydrochloride]
